Values joined by “and” are separate entries in the source; they are usually repeats but may differ in a detail not shown here. Equal values may be shown once.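 96-well plates; 48 h exposure; 5 concentrations. Endpoints by linear interpolation between flanking doses. Not reached: highest tested concentration assigned. GI50 is the concentration that inhibits growth by half. TGI: total growth inhibition.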
Legend:
Test in all cases: NCI tumour cell line growth inhibition, 48 h
KM20L2 colon = system: KM20L2 colon
DMS 273 small cell lung = system: DMS 273 small cell lung
SNB-78 CNS = system: SNB-78 CNS
DMS 114 small cell lung = system: DMS 114 small cell lung
MDA-N = system: MDA-N
SN12K1 renal = system: SN12K1 renal
HOP-18 NSCLC = system: HOP-18 NSCLC
DLD-1 colon = system: DLD-1 colon
XF 498 CNS = system: XF 498 CNS
RXF-631 renal = system: RXF-631 renal
P388/ADR leukemia = system: P388/ADR leukemia
P388 leukemia = system: P388 leukemia

O=C(O)CCSC(=S)Nc1ccc([N+](=O)[O-])cc1
TGI (KM20L2 colon): > 100 µM | TGI (DMS 273 small cell lung): > 100 µM | TGI (SNB-78 CNS): > 100 µM | TGI (DMS 114 small cell lung): > 100 µM | TGI (MDA-N): 58.4 µM

CCCCCC/C=C1\CCC(CN(C)C)C1=O (centres undefined)
TGI (KM20L2 colon): 23.3 µM | TGI (SN12K1 renal): 4.35 µM | TGI (DMS 273 small cell lung): 11.4 µM | TGI (DMS 114 small cell lung): 8.99 µM | TGI (MDA-N): 17.1 µM | TGI (HOP-18 NSCLC): 28.8 µM | TGI (DLD-1 colon): 6.18 µM | TGI (XF 498 CNS): 7.49 µM

CC1=CC(=O)c2ccc(C)cc2C1=O
TGI (MDA-N): 1.17 µM

O=C(Cc1ccccc1)NS(=O)(=O)c1ccccc1
TGI (KM20L2 colon): > 100 µM | TGI (DMS 273 small cell lung): > 100 µM | TGI (SNB-78 CNS): > 100 µM | TGI (DMS 114 small cell lung): > 100 µM | TGI (RXF-631 renal): > 100 µM | TGI (HOP-18 NSCLC): > 100 µM | TGI (DLD-1 colon): > 100 µM | TGI (XF 498 CNS): > 100 µM

CCOC(=O)C(C(=O)OCC)=c1sc(=C(C(=O)OCC)C(=O)OCC)s1
TGI (KM20L2 colon): > 100 µM | TGI (DMS 273 small cell lung): > 100 µM | TGI (SNB-78 CNS): > 100 µM | TGI (DLD-1 colon): > 100 µM

Nc1nc(=Nc2ccccc2)ss1
TGI (KM20L2 colon): > 100 µM | TGI (DMS 273 small cell lung): > 100 µM | TGI (SNB-78 CNS): > 100 µM | TGI (DMS 114 small cell lung): > 100 µM | TGI (RXF-631 renal): > 100 µM | TGI (HOP-18 NSCLC): > 100 µM | TGI (DLD-1 colon): > 100 µM | TGI (XF 498 CNS): > 100 µM

CC1=Nc2ccccc2C12C(c1ccccc1)C(c1ccccc1)C(=O)N1c3ccccc3CC12 (centres undefined)
TGI (KM20L2 colon): > 100 µM | TGI (DMS 273 small cell lung): > 100 µM | TGI (SNB-78 CNS): > 100 µM | TGI (DMS 114 small cell lung): > 100 µM | TGI (RXF-631 renal): > 100 µM | TGI (DLD-1 colon): > 100 µM | TGI (XF 498 CNS): 87.2 µM

CC(C)c1ccc2nc3ccc(C(=O)NCCN4CCN(c5ccccc5)CC4)cn3c(=O)c2c1
TGI (MDA-N): > 100 µM

C=C[C@H]1C=Cc2c(OC)cccc2[C@@H]1COP1(=S)NC(C)C(c2ccccc2)O1 (some centres undefined)
TGI (KM20L2 colon): > 100 µM | TGI (DMS 273 small cell lung): > 100 µM | TGI (SNB-78 CNS): > 100 µM | TGI (DMS 114 small cell lung): > 100 µM | TGI (HOP-18 NSCLC): > 100 µM | TGI (DLD-1 colon): > 100 µM | TGI (XF 498 CNS): > 100 µM

COC(=O)Cc1cc(=O)n2c([nH]c3ccccc32)c1C#N
TGI (KM20L2 colon): > 100 µM | TGI (DMS 273 small cell lung): > 100 µM | TGI (SNB-78 CNS): > 100 µM | TGI (DMS 114 small cell lung): > 100 µM | TGI (DLD-1 colon): > 100 µM | TGI (XF 498 CNS): > 100 µM

CCCCCCNCCCNc1c2ccccc2nc2cccc([N+](=O)[O-])c12
TGI (MDA-N): 0.0252 µM and 0.103 µM

Cn1sc2ccccc2c1=S
TGI (KM20L2 colon): 28.8 µM | TGI (SN12K1 renal): 7.41 µM | TGI (DMS 273 small cell lung): 17.6 µM | TGI (SNB-78 CNS): 31 µM | TGI (DMS 114 small cell lung): 7.46 µM | TGI (P388/ADR leukemia): 2.86 µM | TGI (HOP-18 NSCLC): 28.4 µM | TGI (P388 leukemia): 1.67 µM | TGI (DLD-1 colon): 10.1 µM | TGI (XF 498 CNS): 25.1 µM

COC(=O)[C@@]12C=CC(=O)[C@H]3C[C@@H](C(C(C)C)C1)[C@]32OC (some centres undefined)
TGI (KM20L2 colon): > 100 µM | TGI (DMS 273 small cell lung): > 100 µM | TGI (SNB-78 CNS): > 100 µM | TGI (DMS 114 small cell lung): > 100 µM | TGI (RXF-631 renal): > 100 µM | TGI (HOP-18 NSCLC): > 100 µM | TGI (DLD-1 colon): > 100 µM | TGI (XF 498 CNS): > 100 µM

Cc1ccc(N2C(=O)C(Cl)=C(Cl)C2=O)cc1
TGI (KM20L2 colon): 53.6 µM | TGI (DMS 273 small cell lung): > 100 µM | TGI (SNB-78 CNS): 54.9 µM | TGI (DMS 114 small cell lung): 36.5 µM | TGI (RXF-631 renal): 42.2 µM | TGI (HOP-18 NSCLC): 36.3 µM | TGI (DLD-1 colon): 40.7 µM

CCCCCCCCCCCCC(CCCCCCCCCCCC)OP(=O)(O)O
TGI (KM20L2 colon): > 100 µM | TGI (DMS 273 small cell lung): > 100 µM | TGI (SNB-78 CNS): > 100 µM | TGI (DMS 114 small cell lung): > 100 µM | TGI (RXF-631 renal): > 100 µM | TGI (HOP-18 NSCLC): > 100 µM | TGI (DLD-1 colon): > 100 µM | TGI (XF 498 CNS): > 100 µM

C=C(CN(C)C)C(=O)c1ccc(Oc2ccccc2)cc1
TGI (KM20L2 colon): 27.5 µM | TGI (DMS 273 small cell lung): 46.8 µM | TGI (SNB-78 CNS): 41.9 µM | TGI (RXF-631 renal): 35.9 µM | TGI (MDA-N): 9.38 µM | TGI (HOP-18 NSCLC): 13.3 µM | TGI (DLD-1 colon): 6.96 µM | TGI (XF 498 CNS): 27.9 µM

Cc1ccc(NC(=O)c2cc3ccccc3cc2O)c(C)c1.Cc1ccc(NC(=O)c2cc3ccccc3cc2[O-])c(C)c1.[Ni+2]
GI50 (MDA-N): 3.44 µM | TGI (MDA-N): 17.3 µM

Cc1cc(N(CCOS(C)(=O)=O)CCOS(C)(=O)=O)ccc1C=Nc1ccc(-c2csc(-c3ccc(Br)cc3)n2)cc1
TGI (MDA-N): 56.6 µM

CCOC(=O)NC1CC2CCC1(OC)C=C2C (centres undefined)
TGI (KM20L2 colon): > 100 µM | TGI (DMS 273 small cell lung): > 100 µM | TGI (SNB-78 CNS): > 100 µM | TGI (DMS 114 small cell lung): > 100 µM | TGI (HOP-18 NSCLC): > 100 µM | TGI (DLD-1 colon): > 100 µM | TGI (XF 498 CNS): > 100 µM

CC(=O)[O][Bi]([c]1ccccc1)[c]1ccccc1
GI50 (MDA-N): 7.57 µM | TGI (MDA-N): 20.3 µM

— PubChem BioAssay (NCI)
